Results on eight compounds are retold here after US20100331315A1, “RHODANINES AND RELATED HETEROCYCLES AS KINASE INHIBITORS” (priority 2009, published 2010).

One assay has as its target T1, recombinant human CK2 (Homo sapiens, UniProt P68400).
T1 construct: purchased Upstate
Put plainly: CK2 assay (cell-free, 33P-ATP filter plate). In kind it is biochemical. How it is done: Modulatory activity of compounds described herein was assessed in vitro in cell-free CK2 assays by the following method.
Test compounds in aqueous solution were added at a volume of 10 microliters, to a reaction mixture comprising 10 microliters Assay Dilution Buffer (ADB; 20 mM MOPS, pH 7.2, 25 mM beta-glycerolphosphate, 5 mM EGTA, 1 mM sodium orthovanadate and 1 mM dithiothreitol), 10 microliters of substrate peptide (RRRDDDSDDD, dissolved in ADB at a concentration of 1 mM), 10 microliters of recombinant human CK2 (25 ng dissolved in ADB; Upstate). Reactions were initiated by the addition of 10 microliters of ATP Solution (90% 75 mM MgCl2, 75 micromolar ATP dissolved in ADB; 10% [γ-^33P]ATP (stock 1 mCi/100 μl; 3000 Ci/mmol (Perkin Elmer) and maintained for 10 minutes at 30 degrees C. The reactions were quenched with 100 microliters of 0.75% phosphoric acid, then transferred to and filtered through a phosphocellulose filter plate (Millipore). After washing each well 5 times with 0.75% phosphoric acid, the plate was dried under vacuum for 5 min and, following the addition of 15 ul of scintillation fluid to each well, the residual radioactivity was measured using a Wallac luminescence counter.

A further assay addresses recombinant PIM-1 (Homo sapiens, UniProt P11309). Put plainly: PIM-1 assay (33P-ATP filter plate). The class given is biochemical. The following applies: read-out: PIM1: IC50. The method, then:
The following procedure was used to assay the PIM-1 kinase activity of compounds of the invention. Other methods for assaying PIM-1 and other PIM kinases, as well as methods to assay for activity against the various kinases are known in the art.
In a final reaction volume of 50 ul, recombinant PIM-1 (1 ng) was incubated with 12 mM MOPS pH 7.0, 0.4 mM EDTA, glycerol 1%, brij 35 0.002%, 2-mercaptoethanol 0.02%, BSA 0.2 mg/ml, 100 uM KKRNRTLTK, 10 mM MgAcetate, 15 uM ATP, [γ-^33P-ATP] (specific activity approx. 500 cpm/pmol), DMSO 4% and test inhibitor compound at the required concentration. The reaction was initiated by the addition of the Magnesium ATP mixture. After 40 min incubation at 23° C., the reactions were quenched by the addition of 100 ul 0.75% Phosphoric acid, and the labeled peptide collected by filtration through a phosphocellulose filter plate. The plate was washed 4 times with 0.075% phosphoric acid (100 ul per well) and then, after the addition of scintillation fluid (20 ul per well), the counts were measured by a scintillation counter.

The next assay deals with recombinant human PIM2 (Homo sapiens, UniProt Q9P1W9). Put plainly: PIM-2 assay (33P-ATP filter plate). The class given is biochemical. The method, then:
PIM-2 Assay Method: Test compounds dissolved and diluted in DMSO (2 μl) were added to a reaction mixture comprising 10 μl of 5× Reaction Buffer (40 mM MOPS pH 7.0, 5 mM EDTA), 10 μl of recombinant human PIM2 solution (4 ng PIM-2 dissolved in dilution buffer (20 mM MOPS pH 7.0; EDTA 1 mM; 5% Glycerol; 0.01% Brij 35; […]; […] 2-mercaptoethanol; 1 mg/ml BSA)) and 8 ul of water. Reactions were initiated by the addition of 10 ul of ATP Solution (49% (15 mM MgCl2; 75 uM ATP) 1% ([γ-^33P]ATP: Stock 1 mCi/1000; 3000Ci/mmol (Perkin Elmer)) and 10 ul of substrate peptide solution (RSRSSYPAGT, dissolved in water at a concentration of 1 mM), Reactions were maintained for 10 min at 30° C. The reactions were quenched with 100 ul of 0.75% Phosphoric acid, then transferred to and filtered through a Phosphocellulose filter plate (Millipore, MSPH-N6B-50). After washing each well 4 times with 0.75% Phosphoric acid, scintillation fluid (20 uL) was added to each well and the residual radioactivity was measured using a Wallac luminescence counter.

For a further assay, the system named is K-562. Put plainly: Alamar Blue cell proliferation assay, K-562. The class given is cell-based. The settings on record: Homo sapiens. The method, then: (§1) A representative cell-proliferation assay protocol using Alamar Blue dye (stored at 4° C., use 20 ul per well) is described hereafter.
(§2) a. Split and trypsinize cells.
(§3) b. Count cells using hemocytometer.
(§4) c. Plate 4,000-5,000 cells per well in 100 μl of medium and seed into a 96-well plate according to the following plate layout. Add cell culture medium only to wells B10 to B12. Wells B1 to B9 have cells but no compound added.
(§5) d. Add 100 μl of 2× drug dilution to each well in a concentration shown in the plate layout above. At the same time, add 100 μl of media into the control wells (wells B10 to B12). Total volume is 200 μl/well.
(§6) e. Incubate four (4) days at 37° C., 5% CO2 in a humidified incubator.
(§7) f. Add 20 μl Alamar Blue reagent to each well.
(§8) g. Incubate for four (4) hours at 37° C., 5% CO2 in a humidified incubator.
(§9) h. Record fluorescence at an excitation wavelength of 544 nm and emission wavelength of 590 nm using a microplate reader.
(§10) In the assays, cells are cultured with a test compound for approximately four days, the dye is then added to the cells and fluorescence of […] dye is detected after approximately four hours. Different types of cells can be utilized in the assays (e.g., HCT-116 human colorectal carcinoma cells, PC-3 human prostatic cancer cells and MiaPaca human pancreatic carcinoma cells).

A further assay deals with MV-4-11. Put plainly: Alamar Blue cell proliferation assay, MV-4-11. The class given is cell-based. The following applies: Homo sapiens. How it is done: as §1, §2, §3, §4, §5, §6, §7, §8, §9, §10
(The colour change of resazurin is a common sign of viable cells or microbes.)

Another assay relates to MDAMB231. Put plainly: Alamar Blue cell proliferation assay, MDAMB231. The class given is cell-based. The following applies: Homo sapiens. How it is done: as §1, §2, §3, §4, §5, §6, §7, §8, §9, §10
For assay [1], the system named is MiaPaca human pancreatic carcinoma cells. Put plainly: Alamar Blue cell proliferation assay, MiaPaCa. In kind it is cell-based. How it is done:
as §1, §2, §3, §4, §5, §6, §7, §8, §9, §10

Assay [2] relates to PC-3 human prostatic cancer cells. Put plainly: Alamar Blue cell proliferation assay, PC3. In kind it is cell-based. How it is done:
as §1, §2, §3, §4, §5, §6, §7, §8, §9, §10

[3] abbreviates: K562, K-562, Table 1, read-out: AB: K-562 IC50.
[4] abbreviates: MV4-11, MV-4-11, Table 1, read-out: AB: MV-4-11 IC50.
Setting [5] is: MDA-MB-231, MDAMB231, Table 1, read-out: AB: MDAMB231 IC50.
[6] abbreviates: MIA PaCa-2, Table 1, read-out: AB: MiaPaCa IC50.
[7] abbreviates: PC-3, PC3, Table 1, read-out: AB: PC3.
The mark [8] stands for this setting: K562, K-562, Table 2, read-out: AB: K-562 IC50.
Setting [9] is: MV4-11, MV-4-11, Table 2, read-out: AB: MV-4-11 IC50.
Setting [10] is: MDA-MB-231, MDAMB231, Table 2, read-out: AB: MDAMB231 IC50.
Where [11] appears, read: MIA PaCa-2, Table 2, read-out: AB: MiaPaCa IC50.
The mark [12] stands for this setting: PC3, Table 2, read-out: AB: PC3 IC50.

Like-named read-outs stand apart in the source and are kept apart here. Some results are limits rather than exact numbers.

Chain of recombinant human PIM2 (Q9P1W9 whole entry): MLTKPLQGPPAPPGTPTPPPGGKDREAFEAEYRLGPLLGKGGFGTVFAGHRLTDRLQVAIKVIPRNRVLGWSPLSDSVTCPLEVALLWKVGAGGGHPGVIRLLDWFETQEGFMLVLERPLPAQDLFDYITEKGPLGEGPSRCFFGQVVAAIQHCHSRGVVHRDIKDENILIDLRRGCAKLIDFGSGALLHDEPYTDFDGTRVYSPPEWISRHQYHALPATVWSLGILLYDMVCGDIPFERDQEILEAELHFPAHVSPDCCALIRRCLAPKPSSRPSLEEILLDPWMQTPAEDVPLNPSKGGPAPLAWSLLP
T1 sequence (P68400 whole entry): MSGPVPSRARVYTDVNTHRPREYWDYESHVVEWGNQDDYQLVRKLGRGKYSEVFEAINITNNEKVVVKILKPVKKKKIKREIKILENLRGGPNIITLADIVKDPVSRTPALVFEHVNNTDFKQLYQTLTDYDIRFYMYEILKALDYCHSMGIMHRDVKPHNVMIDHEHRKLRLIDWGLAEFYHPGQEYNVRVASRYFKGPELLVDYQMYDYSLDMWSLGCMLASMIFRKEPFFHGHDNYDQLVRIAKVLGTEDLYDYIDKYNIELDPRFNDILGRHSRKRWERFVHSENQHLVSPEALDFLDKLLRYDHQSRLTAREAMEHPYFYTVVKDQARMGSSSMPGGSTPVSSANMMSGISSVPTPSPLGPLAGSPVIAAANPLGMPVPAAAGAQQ
T1 sequence (P67870 whole entry partner): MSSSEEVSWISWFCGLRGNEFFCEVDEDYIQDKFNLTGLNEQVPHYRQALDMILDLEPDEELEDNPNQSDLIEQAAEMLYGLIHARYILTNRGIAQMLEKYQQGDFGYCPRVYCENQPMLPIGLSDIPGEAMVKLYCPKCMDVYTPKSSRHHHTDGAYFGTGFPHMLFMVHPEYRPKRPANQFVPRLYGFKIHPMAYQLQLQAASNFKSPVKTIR
Chain of recombinant PIM-1 (P11309 whole entry): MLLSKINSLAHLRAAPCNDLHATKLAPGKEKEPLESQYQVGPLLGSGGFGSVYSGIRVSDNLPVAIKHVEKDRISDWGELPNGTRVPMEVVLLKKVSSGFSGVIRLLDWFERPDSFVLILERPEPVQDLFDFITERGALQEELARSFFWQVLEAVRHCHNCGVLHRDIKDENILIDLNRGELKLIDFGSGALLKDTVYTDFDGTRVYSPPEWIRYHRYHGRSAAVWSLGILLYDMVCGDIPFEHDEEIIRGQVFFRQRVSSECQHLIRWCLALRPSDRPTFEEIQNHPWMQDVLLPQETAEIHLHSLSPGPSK

For `CN1CCCN(C(=O)c2cccc(-c3ccc(/C=C4\SC(=S)NC4=O)o3)c2)CC1`, the IC50 at recombinant human CK2 (Table 1) was 47 nM; on recombinant PIM-1 (Table 1) it was 5 nM; at recombinant human PIM2 (Table 1) it was 13 nM; with K-562 (setting [3]), 2890 nM; with MV-4-11 (setting [4]), 406 nM; in the assay on MDAMB231 (setting [5]), more than 10000 nM. The IC50 is 2300 nM in assay [1] (setting [6]) and more than 30000 nM in assay [2] (setting [7]).
On to `O=C1NC(=S)S/C1=C\c1ccc(-c2cccc(C(=O)NCCN3CCCC3)c2)o1`, for which the IC50 on recombinant PIM-1 (Table 1) is 74 nM; at recombinant human PIM2 (Table 1), 704 nM; with K-562 (setting [3]), more than 10000 nM; with MV-4-11 (setting [4]), more than 10000 nM; in the assay with MDAMB231 (setting [5]) it was more than 10000 nM; in assay [1] (setting [6]) it was more than 10000 nM. Further, the IC50 in assay [2] (setting [7]) was more than 30000 nM.
Consider `O=C1NC(=O)/C(=C\c2ccc(-c3ccc(C(=O)O)cc3)o2)S1`, for which the IC50 at recombinant human CK2 (Table 2) was 9 nM; at recombinant PIM-1 (Table 2) it was 41 nM; with K-562 (setting [8]), more than 10000 nM; in the assay with MV-4-11 (setting [9]), more than 1000 nM; in the assay with MDAMB231 (setting [10]), more than 10000 nM; in assay [1] (setting [11]), more than 10000 nM. Besides, the IC50 in assay [2] (setting [12]) was more than 30000 nM.
Regarding `CN1CCCN(C(=O)c2cccc(-c3ccc(/C=C4/SC(=O)NC4=O)o3)c2)CC1`, the IC50 on recombinant human CK2 (Table 2) was 11 nM; at recombinant PIM-1 (Table 2) it was 111 nM; in the assay on K-562 (setting [8]) it was more than 10000 nM; with MV-4-11 (setting [9]), more than 1000 nM; in the assay on MDAMB231 (setting [10]), more than 10000 nM; in assay [1] (setting [11]) it was more than 10000 nM. For the same compound, the IC50 in assay [2] (setting [12]) is more than 30000 nM.
Take `CN1CCCN(C(=O)c2ccc(-c3ccc(/C=C4/SC(=O)NC4=O)o3)cc2)CC1`: the IC50 is 430 nM at recombinant human CK2 (Table 2); 266 nM on recombinant PIM-1 (Table 2); more than 10000 nM in the assay with K-562 (setting [8]); more than 1000 nM with MV-4-11 (setting [9]); more than 10000 nM with MDAMB231 (setting [10]); more than 10000 nM in assay [1] (setting [11]). The IC50 in assay [2] (setting [12]) is more than 30000 nM.
As to `CN1CCCN(c2cncc(-c3cccc(/C=C4\SC(=O)N(C)C4=O)c3)n2)CC1`, the results for the IC50 on recombinant human CK2 (Table 5), at recombinant PIM-1 (Table 5) and at recombinant human PIM2 (Table 5) were more than 5000 nM, 440 nM and 2350 nM, respectively.
On the same counts, the results for `CN1CCCN(c2cncc(-c3ccc(/C=C4\SC(=S)NC4=O)c(F)c3)n2)CC1` are 320 nM, 50 nM and 190 nM.
On the same counts, the results for `CN1CCCN(c2cncc(-c3ccc(/C=C4/SC(=O)NC4=O)c(F)c3)n2)CC1` are more than 5000 nM, 1180 nM and more than 2500 nM.
